In patent US20250075041A1, “COMPOSITIONS FOR SALTWATER-STABLE HYDROGEL ADHESIVES AND METHODS OF USE THEREOF” (Washington University, priority 2023, published 2025):

Assay: Solubility of copolymers and monomer
Format: physicochemical

Nb-TEG-ZnTPP [compound 22]
solubility in H2O: not soluble in H2O
